Laboratory results: paper PMC7486443, “Generation of Phenothiazine with Potent Anti-TLK1 Activity for Prostate Cancer Therapy” (iScience, 2020)

How the values were obtained:
Assay in all cases: biochemical
Set-up in all cases: DiscoverX KINOMEscan scanMAX competition binding panel, single concentration, percent of control; remaining binding: dose or concentration left out as unconfirmed
Settings in all cases: KINOMEscan binding, percent of control; read-out: Table S4_SCANMAX REPORT - related to Fig. 1 / Percent Control
[1] = target: EGFR(G719C) (Homo sapiens, UniProt P00533, G719C)
[2] = target: FLT3(N841I) (Homo sapiens, UniProt P36888, N841I)
[3] = target: MET(Y1235D) (Homo sapiens, UniProt P08581, Y1235D)
[4] = target: T1, CDC2L5 (Homo sapiens, UniProt Q14004)
T1 construct: gene CDK13

[5] = target: CSNK2A1 (Homo sapiens, UniProt P68400)
[6] = target: T2, p38-gamma (Homo sapiens, UniProt P53778)
T2 construct: gene MAPK12

[7] = target: SYK (Homo sapiens, UniProt P43405)
[8] = target: NEK6 (Homo sapiens, UniProt Q9HC98)
[9] = target: TEC (Homo sapiens, UniProt P42680)
[10] = target: KIT-autoinhibited (Homo sapiens, UniProt P10721)
[11] = target: MYO3A (Homo sapiens, UniProt Q8NEV4)
[12] = target: T3, YANK1 (Homo sapiens, UniProt Q8WU08)
T3 construct: gene STK32A

[13] = target: PRKG1 (Homo sapiens, UniProt Q13976)
[14] = target: NEK4 (Homo sapiens, UniProt P51957)
[15] = target: T4, VEGFR2 (Homo sapiens, UniProt P35968)
T4 construct: gene KDR

[16] = target: SGK3 (Homo sapiens, UniProt Q96BR1)
[17] = target: T5, TRKC (Homo sapiens, UniProt Q16288)
T5 construct: gene NTRK3

[18] = target: PRKCQ (Homo sapiens, UniProt Q04759)
[19] = target: PIK3CB (Homo sapiens, UniProt P42338)

Sequence of NEK6 (Q9HC98 whole entry): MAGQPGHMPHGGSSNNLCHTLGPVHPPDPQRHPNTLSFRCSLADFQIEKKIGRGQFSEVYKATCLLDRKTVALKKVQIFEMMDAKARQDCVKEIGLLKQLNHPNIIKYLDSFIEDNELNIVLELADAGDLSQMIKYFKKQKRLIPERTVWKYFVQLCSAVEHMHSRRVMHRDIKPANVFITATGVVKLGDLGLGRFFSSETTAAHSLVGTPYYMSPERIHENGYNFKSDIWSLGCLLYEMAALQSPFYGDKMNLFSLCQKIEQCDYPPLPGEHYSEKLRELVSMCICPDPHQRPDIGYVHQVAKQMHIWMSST
T2 sequence (P53778 whole entry): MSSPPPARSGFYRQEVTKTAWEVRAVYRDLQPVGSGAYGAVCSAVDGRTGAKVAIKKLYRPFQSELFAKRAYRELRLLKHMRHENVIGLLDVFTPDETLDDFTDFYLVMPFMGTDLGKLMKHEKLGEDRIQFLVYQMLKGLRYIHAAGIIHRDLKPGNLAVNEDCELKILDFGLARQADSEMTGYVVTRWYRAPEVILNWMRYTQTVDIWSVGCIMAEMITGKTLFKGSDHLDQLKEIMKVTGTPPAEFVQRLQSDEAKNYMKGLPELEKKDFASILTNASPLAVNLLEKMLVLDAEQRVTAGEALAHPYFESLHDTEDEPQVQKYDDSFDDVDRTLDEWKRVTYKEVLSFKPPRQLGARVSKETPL
Sequence of MYO3A (Q8NEV4 whole entry): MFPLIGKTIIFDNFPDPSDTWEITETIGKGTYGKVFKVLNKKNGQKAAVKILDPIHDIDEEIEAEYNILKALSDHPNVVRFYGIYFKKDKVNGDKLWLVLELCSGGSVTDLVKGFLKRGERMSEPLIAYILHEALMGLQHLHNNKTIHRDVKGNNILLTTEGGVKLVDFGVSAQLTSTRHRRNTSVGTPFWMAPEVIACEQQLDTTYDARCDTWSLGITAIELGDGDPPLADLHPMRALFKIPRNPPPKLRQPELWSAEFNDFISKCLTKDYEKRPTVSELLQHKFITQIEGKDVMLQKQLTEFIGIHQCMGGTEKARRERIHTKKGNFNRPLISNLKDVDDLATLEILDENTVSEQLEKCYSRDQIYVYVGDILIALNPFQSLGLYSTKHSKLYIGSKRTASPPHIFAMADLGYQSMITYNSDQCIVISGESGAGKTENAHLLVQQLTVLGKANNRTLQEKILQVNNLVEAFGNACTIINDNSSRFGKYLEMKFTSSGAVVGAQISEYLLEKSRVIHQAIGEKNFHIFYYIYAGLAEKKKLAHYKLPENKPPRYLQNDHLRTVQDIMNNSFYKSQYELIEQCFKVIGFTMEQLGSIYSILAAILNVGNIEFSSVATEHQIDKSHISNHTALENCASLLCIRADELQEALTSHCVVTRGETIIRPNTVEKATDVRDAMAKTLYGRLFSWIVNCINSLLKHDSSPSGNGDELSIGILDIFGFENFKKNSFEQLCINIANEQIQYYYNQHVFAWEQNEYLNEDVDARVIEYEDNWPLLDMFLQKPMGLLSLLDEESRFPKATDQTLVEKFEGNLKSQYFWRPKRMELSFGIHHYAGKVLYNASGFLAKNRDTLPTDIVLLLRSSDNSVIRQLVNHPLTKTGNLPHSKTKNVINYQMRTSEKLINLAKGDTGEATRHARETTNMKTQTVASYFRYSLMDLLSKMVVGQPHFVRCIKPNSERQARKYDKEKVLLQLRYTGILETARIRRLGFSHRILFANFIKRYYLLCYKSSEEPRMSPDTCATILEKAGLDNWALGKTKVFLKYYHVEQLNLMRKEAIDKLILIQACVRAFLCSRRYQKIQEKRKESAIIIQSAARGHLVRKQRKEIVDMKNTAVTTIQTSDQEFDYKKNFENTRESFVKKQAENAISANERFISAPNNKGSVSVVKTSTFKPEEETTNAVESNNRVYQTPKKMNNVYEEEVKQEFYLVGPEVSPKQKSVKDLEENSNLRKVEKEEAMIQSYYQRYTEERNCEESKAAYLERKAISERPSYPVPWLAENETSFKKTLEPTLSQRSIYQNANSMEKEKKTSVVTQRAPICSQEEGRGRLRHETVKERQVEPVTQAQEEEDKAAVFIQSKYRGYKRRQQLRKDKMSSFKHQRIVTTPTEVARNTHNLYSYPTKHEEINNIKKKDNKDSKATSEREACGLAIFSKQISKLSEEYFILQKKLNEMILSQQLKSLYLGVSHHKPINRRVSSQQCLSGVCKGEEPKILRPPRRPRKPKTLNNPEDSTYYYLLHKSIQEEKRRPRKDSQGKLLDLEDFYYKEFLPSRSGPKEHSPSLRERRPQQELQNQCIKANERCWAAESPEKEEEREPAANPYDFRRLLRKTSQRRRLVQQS
Sequence of PRKG1 (Q13976 whole entry): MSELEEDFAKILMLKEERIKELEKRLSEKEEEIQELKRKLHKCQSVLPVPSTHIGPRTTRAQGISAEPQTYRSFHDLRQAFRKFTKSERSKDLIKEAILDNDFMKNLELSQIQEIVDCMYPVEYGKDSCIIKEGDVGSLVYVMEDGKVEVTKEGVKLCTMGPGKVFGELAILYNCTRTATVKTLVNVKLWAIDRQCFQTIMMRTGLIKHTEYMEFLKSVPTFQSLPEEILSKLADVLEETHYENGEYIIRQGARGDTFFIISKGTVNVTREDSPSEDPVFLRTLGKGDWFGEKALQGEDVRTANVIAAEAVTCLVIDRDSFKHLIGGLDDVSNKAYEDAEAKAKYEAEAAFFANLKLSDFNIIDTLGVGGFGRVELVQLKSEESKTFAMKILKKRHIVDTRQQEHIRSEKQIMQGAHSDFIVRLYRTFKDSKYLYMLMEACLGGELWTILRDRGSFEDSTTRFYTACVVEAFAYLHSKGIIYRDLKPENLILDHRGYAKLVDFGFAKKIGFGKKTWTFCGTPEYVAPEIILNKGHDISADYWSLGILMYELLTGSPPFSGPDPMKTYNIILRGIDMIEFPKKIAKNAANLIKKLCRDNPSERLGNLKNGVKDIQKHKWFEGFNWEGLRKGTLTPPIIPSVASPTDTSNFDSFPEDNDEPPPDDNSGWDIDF
T4 sequence (P35968 whole entry): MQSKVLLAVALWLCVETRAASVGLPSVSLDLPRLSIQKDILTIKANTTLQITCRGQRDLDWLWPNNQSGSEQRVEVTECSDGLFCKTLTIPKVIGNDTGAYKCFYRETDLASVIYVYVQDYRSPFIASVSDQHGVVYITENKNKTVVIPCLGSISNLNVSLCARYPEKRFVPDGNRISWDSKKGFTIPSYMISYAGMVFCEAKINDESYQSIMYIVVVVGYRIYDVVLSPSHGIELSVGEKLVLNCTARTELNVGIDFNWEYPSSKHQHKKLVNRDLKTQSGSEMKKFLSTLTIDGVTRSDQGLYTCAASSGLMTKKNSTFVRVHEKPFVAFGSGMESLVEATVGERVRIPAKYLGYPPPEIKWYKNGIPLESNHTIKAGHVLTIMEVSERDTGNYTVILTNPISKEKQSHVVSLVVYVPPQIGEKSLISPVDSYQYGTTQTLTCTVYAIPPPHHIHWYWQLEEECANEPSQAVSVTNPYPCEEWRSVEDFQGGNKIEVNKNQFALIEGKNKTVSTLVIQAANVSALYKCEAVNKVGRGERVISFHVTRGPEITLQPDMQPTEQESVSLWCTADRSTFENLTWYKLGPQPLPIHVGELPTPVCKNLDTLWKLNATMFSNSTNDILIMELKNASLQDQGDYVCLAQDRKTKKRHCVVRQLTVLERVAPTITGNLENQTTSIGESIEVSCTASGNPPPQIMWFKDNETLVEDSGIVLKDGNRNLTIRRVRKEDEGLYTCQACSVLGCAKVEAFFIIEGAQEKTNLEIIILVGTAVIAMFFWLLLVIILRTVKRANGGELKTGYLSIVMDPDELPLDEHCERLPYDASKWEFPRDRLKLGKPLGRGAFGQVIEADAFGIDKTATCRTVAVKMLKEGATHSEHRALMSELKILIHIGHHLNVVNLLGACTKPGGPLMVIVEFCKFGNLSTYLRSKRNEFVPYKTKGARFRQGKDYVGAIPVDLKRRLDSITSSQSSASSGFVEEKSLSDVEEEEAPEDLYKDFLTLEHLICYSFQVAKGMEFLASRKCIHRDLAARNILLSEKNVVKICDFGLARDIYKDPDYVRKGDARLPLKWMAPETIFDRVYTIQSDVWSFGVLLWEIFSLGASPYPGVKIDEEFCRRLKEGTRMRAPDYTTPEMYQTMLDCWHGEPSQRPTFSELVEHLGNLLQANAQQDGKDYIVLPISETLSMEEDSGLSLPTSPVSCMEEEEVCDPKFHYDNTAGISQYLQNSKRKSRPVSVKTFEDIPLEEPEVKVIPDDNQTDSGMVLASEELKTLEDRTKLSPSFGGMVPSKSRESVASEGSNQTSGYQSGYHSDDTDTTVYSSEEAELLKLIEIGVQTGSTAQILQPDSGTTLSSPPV
Sequence of CSNK2A1 (P68400 whole entry): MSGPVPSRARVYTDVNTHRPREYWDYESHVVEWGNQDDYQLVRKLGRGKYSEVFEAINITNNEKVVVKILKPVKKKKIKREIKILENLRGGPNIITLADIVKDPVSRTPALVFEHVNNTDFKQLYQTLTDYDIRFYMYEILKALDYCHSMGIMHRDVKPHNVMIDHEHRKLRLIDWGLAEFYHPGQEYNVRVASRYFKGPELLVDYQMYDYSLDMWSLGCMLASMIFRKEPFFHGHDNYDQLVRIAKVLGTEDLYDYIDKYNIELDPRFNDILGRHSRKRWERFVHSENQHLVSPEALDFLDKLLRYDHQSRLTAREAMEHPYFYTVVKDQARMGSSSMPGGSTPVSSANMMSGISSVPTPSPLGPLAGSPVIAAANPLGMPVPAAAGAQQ

c1ccc2c(c1)Sc1ccccc1N2CCN1CCOCC1 [J54]
remaining binding [1]: 100% | remaining binding [2]: 99% | remaining binding [3]: 80% | remaining binding [4]: 92% | remaining binding [5]: 79% | remaining binding [6]: 58% | remaining binding [7]: 100% | remaining binding [8]: 92% | remaining binding [9]: 100% | remaining binding [10]: 100% | remaining binding [11]: 100% | remaining binding [12]: 91% | remaining binding [13]: 86% | remaining binding [14]: 100% | remaining binding [15]: 100% | remaining binding [16]: 94% | remaining binding [17]: 81% | remaining binding [18]: 96% | remaining binding [19]: 100%
